Assays:
[1] = test system: normal NK cells expanded with K562-aAPC; experiment: drug sensitivity score (DSS) (DSS units); higher = more sensitive; extreme values may be limits of the assay; conditions: 72 h; IL-2 2.5 ng/mL
Procedure: (§1)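 Drug sensitivity and resistance testing on K562-aAPC-expanded normal NK cells: 5 concentrations (10-fold steps over a 10,000-fold range), 72 h at 37 °C, viability by CellTiter-Glo normalised to DMSO and benzethonium chloride controls; DSS from the fitted curve.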

[2] = test system: DERL-7 (IL-2 2.5 ng/mL); experiment: percent inhibition of viability; higher = more inhibition; conditions: 72 h
[3] = test system: normal primary NK cells, pool 1 (3 donors), resting (IL-2 0 ng/mL); experiment: as above; conditions: 72 h
[4] = test system: KHYG-1 (IL-2 2.5 ng/mL); experiment: as above; conditions: 72 h
[5] = test system: normal primary NK cells, pool 3 (3 donors) (IL-2 2.5 ng/mL); experiment: as above; conditions: 72 h
[6] = test system: NKL (IL-2 2.5 ng/mL); experiment: as above; conditions: 72 h
[7] = test system: SNK-6 (IL-2 2.5 ng/mL); experiment: as above; conditions: 72 h
[8] = test system: NK-92 (IL-2 2.5 ng/mL); experiment: as above; conditions: 72 h
[9] = test system: IMC-1 (IL-2 20 ng/mL); experiment: as above; conditions: 72 h
[10] = test system: normal primary NK cells, pool 2 (3 donors) (IL-2 2.5 ng/mL); experiment: as above; conditions: 72 h
[11] = test system: NK-YS (IL-2 2.5 ng/mL); experiment: as above; conditions: 72 h
[12] = test system: normal primary NK cells, pool 1 (3 donors) (IL-2 2.5 ng/mL); experiment: as above; conditions: 72 h
[13] = test system: YT (IL-2 2.5 ng/mL); experiment: as above; conditions: 72 h
[14] = test system: KAI3 (IL-2 2.5 ng/mL); experiment: as above; conditions: 72 h
[15] = test system: DERL-7 (IL-2 2.5 ng/mL); experiment: drug sensitivity score (DSS) (DSS units); higher = more sensitive; extreme values may be limits of the assay; conditions: 72 h
[16] = test system: normal primary NK cells, pool 1 (3 donors), resting (IL-2 0 ng/mL); experiment: as above; conditions: 72 h
[17] = test system: KHYG-1 (IL-2 2.5 ng/mL); experiment: as above; conditions: 72 h
[18] = test system: normal primary NK cells, pool 3 (3 donors) (IL-2 2.5 ng/mL); experiment: as above; conditions: 72 h
[19] = test system: NKL (IL-2 2.5 ng/mL); experiment: as above; conditions: 72 h
[20] = test system: SNK-6 (IL-2 2.5 ng/mL); experiment: as above; conditions: 72 h
[21] = test system: NK-92 (IL-2 2.5 ng/mL); experiment: as above; conditions: 72 h
[22] = test system: IMC-1 (IL-2 20 ng/mL); experiment: as above; conditions: 72 h
[23] = test system: normal primary NK cells, pool 2 (3 donors) (IL-2 2.5 ng/mL); experiment: as above; conditions: 72 h
[24] = test system: NK-YS (IL-2 2.5 ng/mL); experiment: as above; conditions: 72 h
[25] = test system: normal primary NK cells, pool 1 (3 donors) (IL-2 2.5 ng/mL); experiment: as above; conditions: 72 h
[26] = test system: YT (IL-2 2.5 ng/mL); experiment: as above; conditions: 72 h
[27] = test system: KAI3 (IL-2 2.5 ng/mL); experiment: as above; conditions: 72 h
[28] = test system: normal NK cells expanded with K562-aAPC; experiment: percent inhibition of viability; higher = more inhibition; conditions: 72 h, IL-2 2.5 ng/mL
Procedure: as §1

CNNCc1ccc(C(=O)NC(C)C)cc1 [Procarbazine] (max concentration tested 10000 nM)
Conditions | drug sensitivity score
[1] | 0
[15] | 0
[16] | 0
[17] | 0
[18] | 0
[19] | 0
[20] | 0
[21] | 0
[22] | 0
[23] | 0
[24] | 0
[25] | 0
[26] | 0
[27] | 0

percent inhibition of viability [%]
Conditions | 1 nM | 10 nM | 100 nM | 1000 nM | 10000 nM
[2] | -5.96 | -2.97 | -1.35 | -4.02 | -1.33
[3] | -10.9 | -14.4 | -17.2 | 1.81 | -7.55
[4] | -6.92 | -2.1 | -5.13 | -6.74 | -9.22
[5] | -11.8 | -5.14 | -5.98 | -4.43 | -4
[6] | -15.8 | -21.9 | -20.6 | -22.9 | -16.7
[7] | -3.98 | 12.4 | 2.31 | 3.29 | -21.5
[8] | -19 | -5.13 | -2.68 | -0.23 | -12.9
[9] | -5.39 | -4.18 | -3.85 | -5.41 | -5.74
[10] | -13.7 | -3.7 | -4.8 | -10 | -2.4
[11] | -8.8 | -5.02 | -3.78 | -7.11 | -5.77
[12] | -3.19 | -6.37 | -6.53 | -1.7 | -5.09
[13] | -8.77 | -3.75 | -6.96 | -5.83 | -8.88
[14] | -11.1 | -15.3 | -9.69 | -2.54 | -7.53
[28] | -2.09 | -5.44 | -0.68 | -4.82 | -4.8

Source: the supplement of paper PMC5908809
